Molecular target: T1, Type-2 angiotensin II receptor (Homo sapiens, UniProt P50052)
T1 sequence (P50052 whole entry): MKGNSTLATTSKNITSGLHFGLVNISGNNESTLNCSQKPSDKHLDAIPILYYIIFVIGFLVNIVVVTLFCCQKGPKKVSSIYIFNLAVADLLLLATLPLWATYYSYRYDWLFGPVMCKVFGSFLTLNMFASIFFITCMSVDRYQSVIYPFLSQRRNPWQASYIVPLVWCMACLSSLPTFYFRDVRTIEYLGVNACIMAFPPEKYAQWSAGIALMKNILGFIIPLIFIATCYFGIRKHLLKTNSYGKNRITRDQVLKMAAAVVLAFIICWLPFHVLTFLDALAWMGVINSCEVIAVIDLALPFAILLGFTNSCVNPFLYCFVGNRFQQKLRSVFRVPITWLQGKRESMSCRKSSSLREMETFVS
Assay: Receptor Binding Assay: 120 μL membrane ([…]) was incubated with 15 μL of [125I]-CGP42112A and 15 μL of compound at RT for 1.5 hrs. The binding reaction was stopped by rapid filtration through Unifilter GF/C plates (presoaked in 0.3% (v:v) BSA). Plate was washed three times with ice cold wash buffer. The filtration plates were dried at 37° C. overnight. 50 μL of scintillation cocktail was added to each well. Radioactivity was determined using MicroBetaTriluxmicroplate scintillation counter.

With `O=C(O)[C@@H]1C[C@H](NC(=O)N(c2ccccc2)c2ccccc2)CN1C(=O)C(c1ccccc1)c1ccccc1` as the compound, how does the IC50 read?
Its IC50 is 3360 nM.

Which IC50 does the source give for `O=C(C(c1ccccc1)c1ccccc1)N1C[C@H](OCCCc2ccccc2)[C@H]1CO` here?
The IC50 was 2050 nM.

For `CN(CCCc1ccc(F)cc1)[C@H]1C[C@@H](c2nnn[nH]2)N(C(=O)C(c2ccccc2)c2ccccc2)C1`, which IC50 is on record?
Its IC50 is 3.52 nM.

With `CC(=O)N(CCCc1ccccc1)[C@H]1C[C@@H](C(=O)O)N(C(=O)C(c2ccccc2)c2ccccc2)C1` as the compound, how does the IC50 read?
Its IC50 is 240 nM.

For `O=C(C(c1ccccc1)c1ccccc1)N1C[C@@H](OCCCc2ccccc2)[C@H]1CO`, which IC50 is on record?
Its IC50 is 650 nM.

`CN(CCc1ccccc1)[C@H]1C[C@@H](C(=O)O)N(C(=O)C(c2ccccc2)c2ccccc2)C1` was tested. Which IC50 did it give?
Its IC50 is 384 nM.

Source: ChEMBL document CHEMBL5726139, “Heterocyclic compounds and methods of their use” (2017)
